{"source": "ChEMBL document CHEMBL1125699", "about": "“Development of a novel series of (2-quinolinylmethoxy)phenyl-containing compounds as high-affinity leukotriene D4 receptor antagonists. 4. Addition of chromone moiety enhances leukotriene D4 receptor binding affinity” (J Med Chem, 1991)"}
{"target": "T1, Cysteinyl leukotriene receptor 1 (Cavia porcellus) (UniProt Q2NNR5)", "T1 sequence (whole entry)": "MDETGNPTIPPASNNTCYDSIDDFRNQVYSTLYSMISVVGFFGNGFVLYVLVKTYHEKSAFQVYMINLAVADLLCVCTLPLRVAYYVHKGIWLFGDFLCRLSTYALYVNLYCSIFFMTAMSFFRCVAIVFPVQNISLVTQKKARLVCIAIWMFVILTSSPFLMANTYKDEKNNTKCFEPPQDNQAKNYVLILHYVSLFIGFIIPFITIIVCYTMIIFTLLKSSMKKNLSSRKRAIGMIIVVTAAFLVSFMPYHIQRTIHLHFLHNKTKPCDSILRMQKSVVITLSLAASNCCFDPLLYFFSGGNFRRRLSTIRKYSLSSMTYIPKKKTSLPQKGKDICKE", "test": "Radioligand binding affinity against LTD4 receptor in guinea pig lung membranes at the concentration of 30 nM.", "assay_type": "cell membranes", "details": "Membrane", "units": {"inhibition": "%"}}
{"smiles": "CCCc1c(OCc2cccc(OCc3ccc4ccccc4n3)c2)ccc2c1OC(C(=O)O)CC2=O", "note": "(stereo not given)", "inhibition": 22}
{"target": "T2, Cysteinyl leukotriene receptor 1 (Cavia porcellus, UniProt Q2NNR5)", "T2 sequence (Q2NNR5 whole entry)": "T1 sequence (whole entry)", "test": "Binding affinity against LTD4 receptor in guinea pig lung membranes.", "assay_type": "cell membranes", "details": "not given", "units": {"Ki": "nM"}}
{"smiles": "O=C(O)c1cc(=O)c2ccc(OCc3ccc4ccccc4n3)cc2o1", "Ki": 7000}
{"smiles": "O=C1CC(c2nnn[nH]2)Oc2cc(CCc3cccc(OCc4ccc5ccccc5n4)c3)ccc21", "note": "(stereo not given)", "Ki": 0.3}
{"smiles": "O=C1CC(c2nnn[nH]2)Oc2cc(OCc3cccc(OCc4ccc5ccccc5n4)c3)ccc21", "note": "(stereo not given)", "Ki": 0.1}
{"smiles": "O=C1CC(C(=O)O)Oc2ccc(Cl)c(OCc3ccc(OCc4ccc5ccccc5n4)cc3)c21", "note": "(stereo not given)", "Ki": 18}
{"smiles": "O=C(Nc1cccc2c1OC(c1nnn[nH]1)CC2=O)c1ccc(OCc2ccc3ccccc3n2)cc1", "note": "(stereo not given)", "Ki": 1.1}
{"smiles": "O=C1CC(c2nnn[nH]2)Oc2cc(/C=C/c3cccc(OCc4ccc5ccccc5n4)c3)ccc21", "note": "(stereo not given)", "Ki": 2.5}
{"smiles": "CCOC(=O)C1CC(=O)c2ccc(COc3cccc(OCc4ccc5ccccc5n4)c3)cc2O1", "note": "(stereo not given)", "Ki": 30}
{"smiles": "CC1(CCC(=O)O)CC(=O)c2ccc(OCc3cccc(OCc4ccc5ccccc5n4)c3)cc2O1", "note": "(stereo not given)", "Ki": 1.2}
{"smiles": "O=C1CC(C(=O)O)Oc2cc(OCc3cccc(OCc4ccc5ccccc5n4)c3)ccc21", "note": "(stereo not given)", "Ki": 2.1}
{"smiles": "O=C1CC(C(=O)O)Oc2cc(COc3ccc(OCc4ccc5ccccc5n4)cc3)ccc21", "note": "(stereo not given)", "Ki": 6.3}
{"smiles": "O=C1CC(c2nnn[nH]2)Oc2c(COc3ccc(OCc4ccc5ccccc5n4)cc3)cccc21", "note": "(stereo not given)", "Ki": 15}
{"smiles": "O=C1CC(C(=O)O)Oc2ccc(OCc3cccc(OCc4ccc5ccccc5n4)c3)cc21", "note": "(stereo not given)", "Ki": 1.3}
{"smiles": "O=C1CC(c2nnn[nH]2)Oc2cc(COc3cccc(OCc4ccc5ccccc5n4)c3)ccc21", "note": "(stereo not given)", "Ki": 0.12}
{"smiles": "O=C1CC(C(=O)O)Oc2c(COc3ccc(OCc4ccc5ccccc5n4)cc3)cccc21", "note": "(stereo not given)", "Ki": 13}
